The values below come from patent EP0635494A1, “2-(Imidazol-1-yl)2-benzylethylidene-aminooxyalkyl-hydroxamic acid derivatives” (PHARMACIA S.p.A., priority 1993, dated 1995).

Experiment [1] concerns the target T1, TxA₂ Synthase (Rattus norvegicus, UniProt P49430).
T1 construct: Blood was withdrawn from the abdominal aorta of the animals under light ether anesthesia; from tissue; host or cells: rat whole blood (clotting, serum TxB₂ by RIA)
T1 sequence (P49430 1-533): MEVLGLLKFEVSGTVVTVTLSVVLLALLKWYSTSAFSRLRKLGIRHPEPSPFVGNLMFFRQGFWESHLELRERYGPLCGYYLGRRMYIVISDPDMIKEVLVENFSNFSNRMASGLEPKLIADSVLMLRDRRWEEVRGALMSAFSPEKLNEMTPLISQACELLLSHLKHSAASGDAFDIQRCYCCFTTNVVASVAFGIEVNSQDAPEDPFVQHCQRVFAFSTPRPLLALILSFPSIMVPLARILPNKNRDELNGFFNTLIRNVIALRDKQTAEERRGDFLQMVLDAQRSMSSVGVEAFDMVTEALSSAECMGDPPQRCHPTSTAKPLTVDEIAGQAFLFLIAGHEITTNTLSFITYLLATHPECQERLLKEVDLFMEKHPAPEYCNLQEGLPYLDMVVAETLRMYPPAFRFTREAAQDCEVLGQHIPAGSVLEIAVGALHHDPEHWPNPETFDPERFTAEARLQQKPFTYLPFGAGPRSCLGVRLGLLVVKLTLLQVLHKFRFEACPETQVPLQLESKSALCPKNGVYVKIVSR
As to the kind of experiment: In vitro effects on TxB₂ production in rat whole blood during clotting (TxA₂ synthesis, RIA). The experiment is classed as cell-based. The settings on record: result in words, compared with reference compound Dazoxiben. As to the method: The compounds of formula (I) were for example tested for their ability to inhibit TxA₂ Synthase activity (as reflected by TxB₂ generated in whole blood during clotting or in isolated glomeruli) in vitro in the rat. The in vitro experiments were carried out as follows: The effect of the compounds on TxA₂ synthesis was evaluated in serum.
Blood was withdrawn from the abdominal aorta of the animals under light ether anesthesia.
Samples were then allowed to clot for 1 h at 37°C, centrifuged at 3000 rpm for 10 min, serum collected and stored at -20°C until assayed. TxB₂ levels were determined by RIA according to previously described procedures [Patrono et al. - Thromb.

A further experiment deals with T2, TxA₂ receptor (Homo sapiens, UniProt P21731).
T2 construct: endogenous in cells; host or cells: washed human platelets from healthy volunteers
T2 sequence (P21731 1-343): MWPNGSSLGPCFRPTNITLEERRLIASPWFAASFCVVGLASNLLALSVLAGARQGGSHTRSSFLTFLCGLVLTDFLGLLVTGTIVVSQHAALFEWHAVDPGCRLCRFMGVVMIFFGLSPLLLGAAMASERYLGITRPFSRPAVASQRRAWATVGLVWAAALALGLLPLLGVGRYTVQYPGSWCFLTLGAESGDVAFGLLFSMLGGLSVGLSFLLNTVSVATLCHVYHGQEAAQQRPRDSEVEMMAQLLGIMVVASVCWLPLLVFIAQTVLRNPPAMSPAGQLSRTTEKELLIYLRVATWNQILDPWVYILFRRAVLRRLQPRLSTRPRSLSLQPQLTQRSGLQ
As to the kind of experiment: [³H]-SQ 29,548 binding displacement in washed human platelets (TxA₂ antagonism). Conditions: result in words, compared with Sulotroban (BM 13177).

In experiment [2] the target is T1, TxA₂ Synthase. Conditions: statement on the known compound, no data shown; cited from earlier work.

Method for TxA₂ receptor: The experiments were carried out as follows: Blood from healthy volunteers of both sexes who had not taken any medication for at least 10 days was collected into one-tenth volume of acid citrate dextrose containing indomethacin (28 µM). Platelet rich plasma (PRP), obtained by centrifugation of the blood at 200 x g for 20 min, was washed twice (1000 x g for 10 min). The platelets were then resuspended in Tyrode-Hepes buffer (pH 7.4) to a final concentration of 5-10x10⁻⁸ cells/ml and incubated for 0-60 min at 25°C with [³H]-SQ 29,548 (5 nM). For displacement experiments various concentrations (10⁻⁹ -10⁻⁴M) of competing ligands were added and incubated for 30 min at 25°C.
Non-specific binding was determined in the presence of 50 µM U46619 and was approximately 5% of total binding of [³H]-SQ 29,548. After incubation, 4 ml of ice-cold TRIS-HCl buffer (10 mM, pH 7.4) was added to each tube and the reaction mixture was immediately filtered by suction through a Whatman GE/C glass filter disc which was washed 2 times with ice-cold TRIS-HCl (4 ml) and counted for radioactivity by a Packard-β-counter.
The binding data were analyzed by computerized non-linear curve fitting using the Ligand program and expressed as IC₅₀.

On to `Cc1ccc(CC(/C(=N/OCCCCC(=O)O)C2CCCCC2)n2ccnc2)cc1` (racemic) [FCE 27818, (±)-(E)-5-[2-(4-methylbenzyl)-2-(imidazol-1-yl)-1-cyclohexylethylidene]aminooxypentanoic acid], for which the “inhibitory activity on TxA₂ synthesis” value on TxA₂ Synthase [1] is given as “marked inhibitory activity on TxA₂ synthesis significantly more potent than that of reference compound Dazoxiben”. The “affinity for the receptor” value on TxA₂ receptor was “good affinity for the receptor which is better than that shown by the known compound Sulotroban (BM 13177)”.
The like results for “(±)-(E)-5-[2-benzyl-2-(imidazol-1-yl)-1-cyclohexylethylidene]-aminooxybutanohydroxamic acid [FCE 27790]” were, in that order, “marked inhibitory activity on TxA₂ synthesis significantly more potent than that of reference compound Dazoxiben” and “good affinity for the receptor which is better than that shown by the known compound Sulotroban (BM 13177)”.
As to `O=C(O)COc1ccc(CCNS(=O)(=O)c2ccccc2)cc1` [BM 13177, Sulotroban], the “TxA₂ synthase inhibitory activity” value on TxA₂ Synthase [2] is listed as “devoid of TxA₂ synthase inhibitory activity”.
